Measurements published in US20250326771A1, “PIPERAZINE DERIVATIVES USEFUL IN HIV THERAPY” (VIIV HEALTHCARE COMPANY, priority 2022, published 2025).

Columns and labels:
[1] = system: cell-associated HIV RNA; settings: primary cells / resting CD4+ T cells; cited from earlier work
[2] = system: Jurkat HIV-luciferase clones; settings: HIV latency reversal studies; cited from earlier work
[3] = system: p100/p52; settings: cited from earlier work
[4] = system: Jurkat HIV-luciferase clones; assay: Jurkat latency reversal assay; assay type: cell-based; settings: Homo sapiens, 48 h; Jurkat latency reversal assay potency; read-out: Jurkat pEC50 (converted)
In short: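 Compounds are titrated 3-fold over 14 points from 10 μM in duplicate at 0.5% DMSO. Clones C16, 115 and N6, grown with 500 nM EFV, are co-incubated for 48 h at 37° C. Virally driven luciferase is read by luminescence, and EC50 and maximal percent activation versus vehicle come from a four-parameter model.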

[5] = target: cIAP1-BIR3 (Homo sapiens (Human), UniProt Q13490); assay: BIR binding assay (FRET competition), cIAP1 BIR3; settings: for cIAP1 BIR3 vs BIR2 separation window: fold separation (FS) for cIAP1
In short: (§1)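 Each domain is run separately at its own level: 50 nM cIAP1-BIR3, 100 nM XIAP-BIR3, 325 nM for cIAP1-BIR2 or cIAP2-BIR2. Probe is a 200 nM fluorescent SMAC peptide, and the value is IC50 from FRET competition.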

[6] = target: cIAP1-BIR2 (Homo sapiens (Human), UniProt Q13490); assay: BIR binding assay (FRET competition), cIAP1 BIR2
In short: as §1

[7] = target: cIAP2-BIR3 (Homo sapiens (Human), UniProt Q13489); assay: BIR binding assay (FRET competition), cIAP2 BIR3; settings: for cIAP2 BIR3 vs BIR2 separation window: fold separation (FS) for cIAP2
[8] = target: cIAP2-BIR2 (Homo sapiens (Human), UniProt Q13489); assay: BIR binding assay (FRET competition), cIAP2 BIR2
In short: as §1

[9] = target: XIAP-BIR3 (Homo sapiens (Human), UniProt P98170); assay: BIR binding assay (FRET competition), XIAP BIR3; settings: for XIAP BIR3 vs BIR2 separation window: fold separation (FS) for XIAP
In short: as §1

[10] = target: XIAP-BIR2 (Homo sapiens (Human), UniProt P98170); assay: BIR binding assay (FRET competition), XIAP BIR2; settings: FRET competition binding; read-out: XIAP BIR2 (pIC50) (converted)
In short: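 Compounds in a 15-point, 3-fold series competed with an AlexaFluor647 SMAC peptide (AVPIAQKSE, 200 nM) for 200 nM His-tagged XIAP-BIR2 over 60 min in pH 7.4 HEPES/CHAPS/DTT buffer. Eu-W1024 (2 nM) was then added for 30 min. IC50 and pIC50 were derived from the 615 nm/665 nm emission ratio by variable-slope fit.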

Sequence of XIAP-BIR2 (P98170 124-240): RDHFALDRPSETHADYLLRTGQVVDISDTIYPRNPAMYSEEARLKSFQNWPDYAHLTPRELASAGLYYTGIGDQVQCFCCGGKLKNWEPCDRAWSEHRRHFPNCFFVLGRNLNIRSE
Sequence of cIAP1-BIR3 (Q13490 253-363): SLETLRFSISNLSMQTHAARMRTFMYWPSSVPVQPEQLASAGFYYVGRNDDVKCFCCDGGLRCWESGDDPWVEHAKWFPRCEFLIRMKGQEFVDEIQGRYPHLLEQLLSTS
Sequence of cIAP2-BIR2 (Q13489 158-242): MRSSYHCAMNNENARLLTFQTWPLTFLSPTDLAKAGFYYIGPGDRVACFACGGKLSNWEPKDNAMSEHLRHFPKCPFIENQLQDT
Sequence of XIAP-BIR3 (P98170 241-356): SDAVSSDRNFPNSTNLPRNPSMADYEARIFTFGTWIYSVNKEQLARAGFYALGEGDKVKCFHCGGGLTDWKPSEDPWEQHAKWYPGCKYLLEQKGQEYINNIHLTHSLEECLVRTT
Sequence of cIAP2-BIR3 (Q13489 238-349): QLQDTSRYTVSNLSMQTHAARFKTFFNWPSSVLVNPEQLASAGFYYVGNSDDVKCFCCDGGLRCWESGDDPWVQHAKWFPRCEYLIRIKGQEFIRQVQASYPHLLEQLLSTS
Sequence of cIAP1-BIR2 (Q13490 173-257): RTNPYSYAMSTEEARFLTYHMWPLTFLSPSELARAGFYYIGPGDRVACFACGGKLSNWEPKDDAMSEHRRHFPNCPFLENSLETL

| SMILES | HIV caRNA induction [1] | potency in Jurkat [2] | p100-p52 conversion [3] | EC50 [4] [nM] | IC50 [5] [nM] | cIAP1 BIR3 vs BIR2 separation window [5] | IC50 [6] [nM] | IC50 [7] [nM] | cIAP2 BIR3 vs BIR2 separation window [7] | IC50 [8] [nM] | IC50 [9] [nM] | XIAP BIR3 vs BIR2 separation window [9] | IC50 [10] [nM] |
| --- | --- | --- | --- | --- | --- | --- | --- | --- | --- | --- | --- | --- | --- |
| CN[C@@H](C)C(=O)N[C@H](C(=O)N1CCC[C@H]1C(=O)N[C@H]1c2ccccc2C[C@H]1OCC#CC#CCO[C@@H]1Cc2ccccc2[C@@H]1NC(=O)[C@@H]1CCCN1C(=O)[C@@H](NC(=O)[C@H](C)NC)C1CCCCC1)C1CCCCC1 [AZD5582] | increase in cell-associated HIV RNA expression | – | – | – | – | – | – | – | – | – | – | – | – |
| CC[C@H](NC(=O)[C@H](C)NC)C(=O)N1C[C@@H](O)C[C@H]1Cc1c(-c2[nH]c3cc(F)ccc3c2C[C@@H]2C[C@H](O)CN2C(=O)[C@H](CC)NC(=O)[C@H](C)NC)[nH]c2cc(F)ccc12 [Birinapant TL32711, Birinapant] | not potent | not potent | not potent | – | – | – | – | – | – | – | – | – | – |
| C[C@@H]1CN(CC(=O)N2CC(C)(C)c3[nH]c(=O)c(Cc4ccc(F)cc4)cc32)[C@@H](CN2CCO[C@H](C(=O)N(C)CCCCN(C)C(=O)[C@@H]3CN(C[C@H]4CN[C@H](C)CN4CC(=O)N4CC(C)(C)c5[nH]c(=O)c(Cc6ccc(F)cc6)cc54)CCO3)C2)CN1 [Example 127, (2S,2'S)-N,N′-(butane-1,4-diyl)bis(4-(((2R,5R)-1-(2-(6-(4-fluorobenzyl)-3,3-dimethyl-5-oxo-2,3,4,5-tetrahydro-1H-pyrrolo[3,2-b]pyridin-1-yl)-2-oxoethyl)-5-methylpiperazin-2-yl)methyl)-N-methylmorpholine-2-carboxamide)] | – | – | – | 63.1 to 316 | 7.94 to 15.8 | +++ (10,000>FS>1,000) | 1000 to 3160 | 7.94 to 15.8 | +++ (10,000>FS>1,000) | 1000 to 3160 | 7.94 to 15.8 | ++++ (FS>10,000) | 10000 to 51300 |
| C[C@@H]1CN(CC(=O)N2CC(C)(C)c3[nH]c(=O)c(Cc4ccc(F)cc4)cc32)[C@@H](CN2CCO[C@H](C(=O)NCCNC(=O)[C@@H]3CN(C[C@H]4CN[C@H](C)CN4CC(=O)N4CC(C)(C)c5[nH]c(=O)c(Cc6ccc(F)cc6)cc54)CCO3)C2)CN1 [Example 128, (2S,2'S)-N,N′-(ethane-1,2-diyl)bis(4-(((2R,5R)-1-(2-(6-(4-fluorobenzyl)-3,3-dimethyl-5-oxo-2,3,4,5-tetrahydro-1H-pyrrolo[3,2-b]pyridin-1-yl)-2-oxoethyl)-5-methylpiperazin-2-yl)methyl)morpholine-2-carboxamide)] | – | – | – | 316 to 3310 | 15.8 to 31.6 | +++ (10,000>FS>1,000) | 3160 to 10000 | 7.94 to 15.8 | +++ (10,000>FS>1,000) | 3160 to 10000 | 15.8 to 31.6 | ++++ (FS>10,000) | 10000 to 51300 |
| C[C@@H]1CN(CC(=O)N2CC(C)(C)c3[nH]c(=O)c(Cc4ccc(F)cc4)cc32)[C@@H](CN2CCO[C@H](C(=O)NC3CCN(C(=O)[C@@H]4CN(C[C@H]5CN[C@H](C)CN5CC(=O)N5CC(C)(C)c6[nH]c(=O)c(Cc7ccc(F)cc7)cc65)CCO4)CC3)C2)CN1 [Example 129, (S)-4-(((2R,5R)-1-(2-(6-(4-fluorobenzyl)-3,3-dimethyl-5-oxo-2,3,4,5-tetrahydro-1H-pyrrolo[3,2-b]pyridin-1-yl)-2-oxoethyl)-5-methylpiperazin-2-yl)methyl)-N-(1-((S)-4-(((2R,5R)-1-(2-(6-(4-fluorobenzyl)-3,3-dimethyl-5-oxo-2,3,4,5-tetrahydro-1H-pyrrolo[3,2-b]pyridin-1-yl)-2-oxoethyl)-5-methylpiperazin-2-yl)methyl)morpholine-2-carbonyl)piperidin-4-yl)morpholine-2-carboxamide] | – | – | – | 0.49 to 12.6 | 7.94 to 15.8 | ++ (1,000>FS>100) | 22.4 to 1000 | 7.94 to 15.8 | +++ (10,000>FS>1,000) | 1000 to 3160 | 15.8 to 31.6 | ++++ (FS>10,000) | 10000 to 51300 |
| C[C@@H]1CN(CC(=O)N2CC(C)(C)c3[nH]c(=O)c(Cc4ccc(F)cc4)cc32)[C@@H](CN2CCO[C@H](C(=O)N(C)CCCN(C)C(=O)[C@@H]3CN(C[C@H]4CN[C@H](C)CN4CC(=O)N4CC(C)(C)c5[nH]c(=O)c(Cc6ccc(F)cc6)cc54)CCO3)C2)CN1 [Example 130, (2S,2'S)-N,N′-(Propane-1,3-diyl)bis(4-(((2R,5R)-1-(2-(6-(4-fluorobenzyl)-3,3-dimethyl-5-oxo-2,3,4,5-tetrahydro-1H-pyrrolo[3,2-b]pyridin-1-yl)-2-oxoethyl)-5-methylpiperazin-2-yl)methyl)-N-methylmorpholine-2-carboxamide)] | – | – | – | 12.6 to 63.1 | 1.38 to 7.94 | +++ (10,000>FS>1,000) | 1000 to 3160 | 1.38 to 7.94 | +++ (10,000>FS>1,000) | 1000 to 3160 | 7.94 to 15.8 | ++++ (FS>10,000) | 10000 to 51300 |
| C[C@@H]1CN(CC(=O)N2CC(C)(C)c3[nH]c(=O)c(Cc4ccc(F)cc4)cc32)[C@@H](CN2CCO[C@H](C(=O)N3CCCN(C(=O)[C@@H]4CN(C[C@H]5CN[C@H](C)CN5CC(=O)N5CC(C)(C)c6[nH]c(=O)c(Cc7ccc(F)cc7)cc65)CCO4)CC3)C2)CN1 [Example 131, 1,1′-(2,2′-((3R,3′R,6R,6′R)-(((2S,2'S)-(1,4-diazepane-1,4-dicarbonyl)bis(morpholine-2,4-diyl))bis(methylene))bis(3-methylpiperazine-6,1-diyl))bis(acetyl))bis(6-(4-fluorobenzyl)-3,3-dimethyl-1,2,3,4-tetrahydro-5H-pyrrolo[3,2-b]pyridin-5-one)] | – | – | – | 12.6 to 63.1 | 31.6 to 501 | ++ (1,000>FS>100) | 1000 to 3160 | 7.94 to 15.8 | +++ (10,000>FS>1,000) | 1000 to 3160 | 15.8 to 31.6 | ++++ (FS>10,000) | 10000 to 51300 |
| C[C@@H]1CN(CC(=O)N2CC(C)(C)c3[nH]c(=O)c(Cc4ccc(F)cc4)cc32)[C@@H](CN2CCO[C@H](C(=O)N(C)CC3CCN(C(=O)[C@@H]4CN(C[C@H]5CN[C@H](C)CN5CC(=O)N5CC(C)(C)c6[nH]c(=O)c(Cc7ccc(F)cc7)cc65)CCO4)CC3)C2)CN1 [Example 132, (S)-4-(((2R,5R)-1-(2-(6-(4-fluorobenzyl)-3,3-dimethyl-5-oxo-2,3,4,5-tetrahydro-1H-pyrrolo[3,2-b]pyridin-1-yl)-2-oxoethyl)-5-methylpiperazin-2-yl)methyl)-N-((1-((S)-4-(((2R,5R)-1-(2-(6-(4-fluorobenzyl)-3,3-dimethyl-5-oxo-2,3,4,5-tetrahydro-1H-pyrrolo[3,2-b]pyridin-1-yl)-2-oxoethyl)-5-methylpiperazin-2-yl)methyl)morpholine-2-carbonyl)piperidin-4-yl)methyl)-N-methylmorpholine-2-carboxamide] | – | – | – | 12.6 to 63.1 | 7.94 to 15.8 | +++ (10,000>FS>1,000) | 3160 to 10000 | 7.94 to 15.8 | +++ (10,000>FS>1,000) | 1000 to 3160 | 15.8 to 31.6 | ++++ (FS>10,000) | 10000 to 51300 |
